# Test results taken from a melting point compilation (Tetko et al.; mined from patent text by program, amines drawn as free bases though some values may be those of a salt).
row,Compound,melting point
1,COc1cc(COc2nn(-c3ccccc3)cc2/C=C/c2csc(C(C)C)n2)ccc1OCc1nc(-c2ccc(CC(=O)O)cc2)oc1C,107 to 109 °C
2,Cc1cc(Cl)cc2nc3c(=O)[nH][nH]c(=O)c3c(O)c12,117 to 119 °C
3,OCC(O)CNc1nc(-c2ccc(Cl)c(Cl)c2)nc2ccccc12 (stereo not drawn),162 to 164 °C
4,C=CCn1c(-c2c(Cl)cccc2Cl)nc(-c2ccncc2)c1-c1ccc(C)cc1,147 to 149 °C
5,NC(=N[N+](=O)[O-])N1CCN(Cc2ccc(Cl)nc2)C1,170 to 174 °C
6,CN(C)c1ccc([PH](=O)c2ccc(N(C)C)cc2)cc1,152 °C
7,CCOC(=O)COc1ccc(Cn2c(-c3ccc(OCc4ccccc4)cc3)c(C)c3cc(OCc4ccccc4)ccc32)cc1OC,120 to 123 °C
8,N#Cc1ccc(N2C(=O)N(CCF)C(CF)(CF)C2=O)cc1C(F)(F)F,136 to 137 °C
9,CCOC(=O)c1ncn2c1CN(C)C(=O)c1c(C)cccc1-2,146 to 147 °C
10,Clc1ccc(C2COCCS2)cc1Cl (stereo not drawn),65 to 68 °C
11,CCCc1c(OCCCOc2cc(NC(=O)C(=O)O)c(C)cc2Br)ccc(C(C)=O)c1O,101 to 103 °C
12,COc1cc2cnnc(N3CCC(CC(C)O)CC3)c2cc1OC (stereo not drawn),154 to 156 °C
13,CCOCc1nc2c(N)nc3cc(-c4cncc(CO)c4)cnc3c2n1CC(C)(C)O,212 to 214 °C
14,Cc1ccc2ccc(N3C(=O)c4cccnc4C3OC(=O)N3CCN(C)CC3)nc2n1 (stereo not drawn),226 °C
15,CC1(C=NO)OCCc2c1[nH]c1ccccc21 (stereo not drawn),176 to 178 °C
16,CP1(=O)c2ccccc2CN1c1ccc(Br)cc1 (stereo not drawn),135 to 136 °C
17,Clc1ccc2[nH]c3c(c2c1)CN(CCCCc1ccncc1)CC3,227 to 228 °C
18,COc1ccc(CN(C)CCc2ccc(NC(=O)c3cccc4c(=O)c5ccccc5sc34)cc2)cc1OC,180 °C
19,O=C(c1ccc(-n2ccc(C(F)(F)F)n2)cc1)N1Cc2cccn2Cc2ccccc21,166 to 167 °C
20,CCOC(=O)Oc1ccc(C(=O)OCCN2CCN(CCN3CCOCC3)CC2)cc1,85 to 87 °C
21,O=C(NCC(=O)c1c(O)cc(O)cc1OCc1ccccc1)OCc1ccccc1,129 to 131 °C
22,Cc1csc(-c2ccc(C(=O)Nc3ccc4cc(CN5CCCC5)cnc4c3C)cc2)c1,224 to 225 °C
23,CCCN1C(=O)N2CCCN=C2c2c1ncn2C,107 to 109 °C

row,Compound,melting point
1,OC(CSC(=S)Nc1ccc(Cl)cn1)c1ccccc1 (stereo not drawn),116 °C
2,Cc1cc(CC#N)cc(CC#N)c1,75 to 78 °C
3,COc1cc2cc3ncc(C#N)c(Nc4ccc(F)c(Cl)c4)c3cc2cc1OC,> 280 °C
4,[N-]=[N+]=C1C(=O)Nc2c1cccc2C(F)(F)F,173 to 175 °C
5,CCCCCCCSc1nnc(N)s1,112 to 113 °C
6,CCCCCC(O)C1C(=O)NC(C(=O)SCC(=O)OC)(C(O)C2C=CCCC2)C1(C)O (stereo not drawn),75 °C
7,Cn1cncc1C(O)(c1ccc(Cl)cc1)c1cc2c3c(c1)c(-c1cccc(Cl)c1)cc(=O)n3CC2 (stereo not drawn),214 °C
8,CCn1c(=O)c(-c2c(Cl)cccc2Cl)cc2cnc(Nc3ccc(OC)cc3)nc21,213 to 215 °C
9,COC(=O)[C@@H]1COC(c2ncn3c2CN(C)C(=O)c2sccc2-3)=N1,215 to 217 °C
10,COc1cc2c(cc1OCc1ccccc1)CCN(Cc1ccccc1)C2,97 to 98 °C
11,COc1cc(OC)nc(Oc2cccc(OC(F)F)c2C(=O)O)n1,113 to 115 °C
12,CCCC[C@H](NC(=O)C(CSC(C)=O)C(F)(F)F)C(=O)O (stereo partly drawn),123 to 125 °C
13,CCc1c(NC(=O)c2ccc(-c3ccc(F)cc3)cc2)ccc2cc(CN3CCCC3)cnc12,258 to 260 °C
14,CCCc1nc2c(C)cccc2n1Cc1ccc(-c2ccccc2-c2nnn[nH]2)nc1,169 to 170 °C
15,CCOC(=O)c1c(C)c(C(=O)O)c(C)n1C,197 to 198 °C
16,CC(C)CCNc1nc(N2CCCCC2)nc2c(NCCC(C)C)nc(N3CCCCC3)nc12,192 to 194 °C
17,CCCCCCCCNC(=N)NC#N,69 to 74 °C
18,COc1nc2ccnn2c2ncccc12,154 °C
19,Cc1c(C(=O)O)cc(O)c2cc(-c3ccc4c(c3)C(C)(C)CCC4(C)C)ccc12,266 °C
20,CCC(C)OC(=O)C(S)(C#N)C1=NC(C)Cc2cc(OC)c(OC)cc21 (stereo not drawn),113 to 114 °C
21,COc1cnn(-c2cc(F)c(C#N)cc2F)c(=O)c1Cl,182 °C
22,CCc1c(N)c(C(N)=O)nn1C1CN(C(C)C)C1,195 to 200 °C
23,CCOC(=O)c1cnc2ccc(CC3CCOCC3)cc2c1O,275 to 280 °C

# The next lines start with the values.
row,melting point,Compound
1,112 to 114 °C,COc1ccc(NN=C(Sc2ccccc2C)C(C)=O)cc1
2,192 to 194 °C,CC(=O)c1cn(C)cc(-c2cccc(Br)c2)c1=O
3,229 to 248 °C,O=C(O)c1ccc2c(c1)S(=O)(=O)c1ccccc1C2
4,170 to 172 °C,CN(C)C(=O)n1nc(N)c2ccc(Cl)cc21
5,208 to 210 °C,Cc1nc2c(N)nc3c(c2n1CCCCS(=O)(=O)C(C)(C)C)CCCC3
6,76 to 79 °C,CC(=O)Oc1cc(C(C)=O)cc(C#N)c1OC(C)=O
7,225 °C,CNC(=S)NCC1=C(n2ccccc2=O)c2cc([N+](=O)[O-])ccc2OC1(C)C
8,186 to 188 °C,FC(F)(F)c1ccc(-c2ccc(Cl)nn2)cc1
9,138 to 143 °C,O=CNNc1ccccc1
10,142 to 144 °C,CCCOc1ccc(C(CC(=O)O)N2C(=O)c3ccccc3C2=O)cc1 (stereo not drawn)
11,162 to 165 °C,CS(=O)(=O)c1ccc(/C(=C\CC2CCCC2)C(=O)O)cc1
12,190 to 191 °C,COC(=O)C(=NO)c1nc2c(C)c(Cl)ccc2oc1=O
13,140 to 143 °C,Cc1ccc(N2N=C(C(F)(F)F)CC2c2ccc(S(C)(=O)=O)cc2)cc1 (stereo not drawn)
14,219 °C,CC(C)(C)[N+]([O-])=Cc1ccc(S(N)(=O)=O)cc1
15,229 to 230 °C,CCN1C(=O)C2=C(c3ccccc3)N(CC)C(=O)C2=C1c1ccccc1
16,> 300 °C,NC(=O)Nc1cccc2c1C(=O)c1c-2n[nH]c1-c1csc(Cl)c1
17,75 °C,CC[C@H](C)CCCCCOc1ccc(C(=O)Oc2ccc(O)cc2)cc1
18,238 to 239 °C,CC1(C)CC(=O)C2=C(C1)NC1=C(C(=O)CC(C)(C)C1)C2c1cccc(Oc2ccc(Cl)cc2)c1
19,53 to 54 °C,CCOC(C#N)c1ccc2ccccc2c1 (stereo not drawn)

row,melting point,Compound
1,> 300 °C,N#Cc1ccc(-c2nccc3[nH]c(=O)ccc23)cc1
2,102 to 103 °C,COCOc1c(N=Nc2ccc(OC)cc2)cc(OC)cc1C(C)(C)C
3,112 to 114 °C,O=C(CCl)c1cccn1Cc1ccccc1[N+](=O)[O-]
4,95 to 102 °C,CCOC(=O)c1cc2ccc(CBr)cc2o1
5,178 to 180 °C,O=S(=O)(c1ccc(O)cc1)c1ccc2cc(Br)ccc2c1
6,145 to 146 °C,COc1ccc2c(=O)c3c(OC)cccc3oc2c1OC
7,204 to 205 °C,CS(=O)(=O)c1ccc(-n2cnc3ccc(-c4nnc(CCc5cccc(C(F)(F)F)c5)o4)cc32)cc1
8,224 to 226 °C,COC(=O)c1ccc(-c2n[nH]c3c2Cc2ccccc2-3)cc1
9,77.5 to 80 °C,CCOC(=O)CNc1nc(Cl)ccc1[N+](=O)[O-]
10,214 to 218 °C,Cc1ccc(N2C(=O)C(O)=C(C(=O)c3ccc(C(C)C)cc3)C2c2ccc(OC(F)(F)F)cc2)cn1 (stereo not drawn)
11,101 to 103 °C,CS(=O)(=O)Oc1cc(CC(=O)O)on1
12,218 to 220 °C,CC(C)(C)CC(C)(C)NCC(=O)N1CC2C(C1)C2Nc1ncc2cc(-c3ccccc3Cl)c(=O)n(C3CC3)c2n1 (stereo not drawn)
13,127 to 131 °C,COc1ccc2c(c1)C(=O)C(=Cc1cccnc1)CO2
14,300 to 302 °C,CCOc1ccccc1C=C1CCc2c1oc1ccc(C(=O)O)cc1c2=O
15,139 to 140 °C,Nc1ccc(C(O)c2ccccn2)cc1 (stereo not drawn)
16,86 to 89 °C,CC(CO)c1ccc2c(c1)Cc1ccccc1O2 (stereo not drawn)
17,255 to 258 °C,CC1(C)Oc2ccc(C#N)cc2[C@@H](NC2=C(C=O)C(=O)CC2)[C@@H]1O (relative stereo)
18,139 to 141 °C,CN1C(=O)c2cccc(C(F)(F)F)c2Sc2ccccc21
19,176 °C,CCOC(=O)c1cc2ccc(C#N)cc2[nH]1

row,melting point,Compound
1,142 to 143 °C,Cc1cc(/C=C/C(c2cc(Cl)cc(Cl)c2)C(F)(F)F)ccc1C(=O)O (stereo not drawn)
2,212 to 214 °C,CS(=O)(=O)N1CCC(NC(=O)Nc2cccc(F)c2)CC1
3,237 to 239 °C,Cc1nnc2ccc(-c3cccc(NC(=O)N(C)C)c3)nn12
4,99 to 101 °C,O=C(SCCC(=O)N1c2ccccc2CCC1C(=O)O)c1ccccc1 (stereo not drawn)
5,104 to 105 °C,CCCCCCNC(=O)c1ccccc1I
6,40 °C,O=C(C=Cc1ccccc1O)OCCc1ccccc1
7,68 to 70 °C,C=CCc1ccccc1OCC(O)CNCCc1ccc(NC2CCN(S(=O)(=O)c3ccc(NC(=O)NCCCCCC)cc3)CC2)cc1 (stereo not drawn)
8,106 °C,CS(=O)(=O)Nc1ccccc1SCc1ncon1
9,130 to 132 °C,CC(C(=O)O)c1ccc2c(c1)C(=O)C(C(C)C)C2 (stereo not drawn)
10,160 to 161 °C,O=C(N[C@@H](Cc1c[nH]c2ccccc12)C(=O)O)c1cccc(Cl)c1
11,168 to 170 °C,CC(C)OC(=O)Nc1ccc(NC=O)c([N+](=O)[O-])c1
12,> 250 °C,Cc1cc(C)c(-c2cccc3c(O)cc(C)nc23)c(C)c1
13,80 to 82 °C,CC1(C)C=C(c2ccccn2)c2ccccc2O1
14,125 to 126 °C,Cc1cccc(-c2nccc3nc(N)nn23)c1
15,96 to 97 °C,CCCCOc1cccc2oc(-c3ccccc3)cc(=O)c12
16,179 to 180 °C,CC(C)(C)c1cc(CCc2ccccc2NC(=O)NCC(C)(C)c2ccc(F)cc2)cc(C(C)(C)C)c1O
17,104 to 106 °C,CCCc1ccc(-c2ccn([C@H](CC(=O)O)C(=O)N[C@H](C(=O)NC)C(C)(C)C)c2)cc1
18,183 to 184 °C,Cc1ccc2cc(C3=NCCS3)[nH]c2c1NS(=O)(=O)c1cccs1
19,114 to 115 °C,CCOC(=O)CCc1ccc2c3ccccc3n(Cc3ccccc3)c2c1C
